Laboratory results: US12607622B2, “Method for diagnosing and monitoring inflammatory disease progression” (MCMASTER UNIVERSITY, priority 2013, dated 2026)

System: BDNF
Assay: BDNF transcript expression in the uterus of ovariectomized mice by Real Time PCR
Assay type: in vivo
Settings: estradiol primed, Real Time PCR relative expression, FIG. 8
Experimental: BDNF transcripts were measured in the murine uterus of ovariectomized mice by Real Time PCR and relative expression quantified in mice receiving saline (Control (n=4)), estradiol primed then estradiol (E2 (n=6)), estradiol primed then progesterone (P4 (n=6)), estradiol primed then estradiol+progesterone (E2+P4 (n=6)), or estradiol primed then saline (Saline (n=4). [table]

CC(=O)[C@H]1CC[C@H]2[C@@H]3CCC4=CC(=O)CC[C@]4(C)[C@H]3CC[C@]12C [P4, progesterone]
BDNF expression in the uterus: significantly increased
